Results as given in US9701689B2, “Substituted pyridines and pyridazines as CCR10 receptor inhibitors” (KYOWA HAKKO KIRIN CO., LTD., priority 2012, dated 2017).

biological target: T1, human CCR10 (Homo sapiens, UniProt P46092); test: CCR10 antagonistic effect: calcium assay of human CCR10 (CTACK-induced increase of intracellular calcium in hCCR10G16 cells); type: cell-based; details: at a concentration of not more than 1000 nmol/L; human CCR10-expressing hCCR10G16 cells, 300 nmol/L CTACK added; read-out: inhibition of increase in the calcium ion concentration
T1 construct: expressed in transfected cells; host or cells: KJMGER8 cells (Namalwa cell-derived line), beta-estradiol-induced; hCCR10G16 cells
T1 sequence (P46092 1-362): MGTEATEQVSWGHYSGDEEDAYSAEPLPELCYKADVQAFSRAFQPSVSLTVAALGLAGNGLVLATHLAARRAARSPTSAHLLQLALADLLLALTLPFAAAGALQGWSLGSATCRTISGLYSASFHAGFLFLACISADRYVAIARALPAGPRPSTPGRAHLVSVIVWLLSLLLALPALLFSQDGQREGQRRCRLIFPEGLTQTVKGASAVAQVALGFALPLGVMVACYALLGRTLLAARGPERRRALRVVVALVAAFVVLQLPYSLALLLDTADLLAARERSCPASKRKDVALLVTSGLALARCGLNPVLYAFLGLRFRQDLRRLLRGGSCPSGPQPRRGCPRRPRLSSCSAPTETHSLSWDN
Outline: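 Inhibition of CTACK-evoked calcium flux (max minus min Fluo-3 fluorescence over ~5 min, FDSS) was calculated against control in β-estradiol-induced human CCR10/Gα16 KJMGER8 cells, after 30 min compound preincubation at 37 °C; CTACK added from a 300 nmol/L solution.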

Structure (SMILES) | inhibition at up to 1 µM [%]
NS(=O)(=O)c1ncc(C(=O)N2CCC3(CC2)COc2ccccc23)c(NC2(c3ccccc3)CC2)c1Cl [Compound 297, 3-chloro-4-(1-phenylcyclopropylamino)-5-(2H-spiro[benzofuran-3,4′-piperidin]-1′-ylcarbonyl)pyridine-2-sulfonamide] | ≥ 50
Cc1cc(NS(=O)(=O)c2ncc(C(=O)N3CCC(c4ccc(F)cc4)CC3)c(Nc3ccc(F)c(F)c3)c2C)sn1 [Compound 301, 4-(3,4-difluorophenylamino)-5-[4-(4-fluorophenyl)piperidine-1-carbonyl]-3-methyl-N-(3-methylisothiazol-5-yl)pyridine-2-sulfonamide] | ≥ 50
CC(=O)c1ccc(C)c(NC2=CC=NC(S(N)(=O)=O)C2(Cl)C(=O)N2CCC(c3ccc(F)cc3)CC2)c1 (stereo not shown) [Compound 303, 4-(5-acetyl-2-methylphenylamino)-3-chloro-3-[4-(4-fluorophenyl)piperidine-1-carbonyl]pyridine-2-sulfonamide] | ≥ 50
COC1(c2ccc(F)cc2)CCN(C(=O)c2cnc(S(N)(=O)=O)c(C)c2Nc2ccccc2C)CC1 [Compound 304, 5-[4-(4-fluorophenyl)-4-methoxypiperidine-1-carbonyl]-3-methyl-4-(o-tolylamino)pyridine-2-sulfonamide] | ≥ 50
Cc1ccccc1Nc1c(C(=O)N2CCC3(CC2)COc2ccccc23)cnc(S(N)(=O)=O)c1C [Compound 305, 3-methyl-5-(2H-spiro[benzofuran-3,4′-piperidin]-1′-ylcarbonyl)-4-(o-tolylamino)pyridine-2-sulfonamide] | ≥ 50
NS(=O)(=O)c1ncc(C(=O)N2CCC3(CC2)COc2ccccc23)c(Nc2cccc(Cl)c2)c1Cl [Compound 307, 3-chloro-4-(3-chlorophenylamino)-5-(2H-spiro[benzofuran-3,4′-piperidine]-1′-ylcarbonyl)pyridine-2-sulfonamide] | ≥ 50
COC1(c2ccc(F)cc2)CCN(C(=O)c2cnc(S(N)(=O)=O)c(Cl)c2Nc2cc(Cl)ccc2C)CC1 [Compound 313, 3-chloro-4-(5-chloro-2-methylphenylamino)-5-[4-(4-fluorophenyl)-4-methoxypiperidine-1-carbonyl]pyridine-2-sulfonamide] | ≥ 50
Cc1cc(NS(=O)(=O)c2ncc(C(=O)N3CCC(c4ccc(F)cc4)CC3)c(Nc3cc(F)ccc3F)c2C)sn1 [Compound 315, 4-(2,5-difluorophenylamino)-5-[4-(4-fluorophenyl)piperidine-1-carbonyl]-3-methyl-N-(3-methylisothiazol-5-yl)pyridine-2-sulfonamide] | ≥ 50
Cc1cc(NS(=O)(=O)c2ncc(C(=O)N3CCC(c4ccc(F)cc4)CC3)c(Nc3ccc(F)cc3F)c2C)sn1 [Compound 316, 4-(2,4-difluorophenylamino)-5-[4-(4-fluorophenyl)piperidine-1-carbonyl]-3-methyl-N-(3-methylisothiazol-5-yl)pyridine-2-sulfonamide] | ≥ 50

Now from value to molecule:

inhibition at up to 1 µM [%] | Structure (SMILES)
≥ 50 | Cc1c(S(=O)(=O)Nc2ccon2)ncc(C(=O)N2CCC(c3ccc(F)cc3)CC2)c1Nc1ccc(C#N)cc1 [Compound 298, 4-(4-cyanophenylamino)-5-[4-(4-fluorophenyl)piperidine-1-carbonyl]-N-(isoxazol-3-yl)-3-methylpyridine-2-sulfonamide]
≥ 50 | Cc1cc(NS(=O)(=O)c2ncc(C(=O)N3CCC(c4ccc(F)cc4)CC3)c(Nc3ccc(F)cc3)c2C)sn1 [Compound 299, 5-[4-(4-fluorophenyl)piperidine-1-carbonyl]-4-(4-fluorophenylamino)-3-methyl-N-(3-methylisothiazol-5-yl)pyridine-2-sulfonamide]
≥ 50 | Cc1ccc(Nc2c(C(=O)N3CCC(c4ccc(F)cc4)CC3)cnc(S(=O)(=O)Nc3cc(C)ns3)c2C)cc1 [Compound 300, 5-[4-(4-fluorophenyl)piperidine-1-carbonyl]-3-methyl-N-(3-methylisothiazol-5-yl)-4-(p-tolylamino)pyridine-2-sulfonamide]
≥ 50 | NS(=O)(=O)c1ncc(C(=O)N2CCC(c3ccc(F)cc3)CC2)c(Nc2ccc(Cl)cc2)c1Cl [Compound 302, 3-chloro-4-(4-chlorophenylamino)-5-[4-(4-fluorophenyl)piperidine-1-carbonyl]pyridine-2-sulfonamide]
≥ 50 | COC1(c2ccc(F)cc2)CCN(C(=O)c2cnc(S(N)(=O)=O)c(Cl)c2Nc2cccc(Cl)c2)CC1 [Compound 306, 3-chloro-4-(3-chlorophenylamino)-5-[4-(4-fluorophenyl)-4-methoxypiperidine-1-carbonyl]pyridine-2-sulfonamide]
≥ 50 | NS(=O)(=O)c1ncc(C(=O)N2CCC(c3ccccc3)CC2)c(Nc2cccc(Cl)c2)c1Cl [Compound 308, 3-chloro-4-(3-chlorophenylamino)-5-(4-phenylpiperidine-1-carbonyl)pyridine-2-sulfonamide]
≥ 50 | Cc1ccc(Cl)cc1Nc1c(C(=O)N2CCC(c3ccccc3)CC2)cnc(S(N)(=O)=O)c1Cl [Compound 309, 3-chloro-4-(5-chloro-2-methylphenylamino)-5-(4-phenylpiperidine-1-carbonyl)pyridine-2-sulfonamide]
≥ 50 | CCc1ccc(Nc2c(C(=O)N3CCC(c4ccc(F)cc4)CC3)cnc(S(N)(=O)=O)c2Cl)cc1 [Compound 310, 3-chloro-4-(4-ethylphenylamino)-5-[4-(4-fluorophenyl)piperidine-1-carbonyl]pyridine-2-sulfonamide]
≥ 50 | Cc1ccc(C(F)(F)F)cc1Nc1c(C(=O)N2CCC(c3ccc(F)cc3)CC2)cnc(S(N)(=O)=O)c1Cl [Compound 311, 3-chloro-5-[4-(4-fluorophenyl)piperidine-1-carbonyl]-4-[2-methyl-5-(trifluoromethyl)phenylamino]pyridine-2-sulfonamide]
≥ 50 | NS(=O)(=O)c1ncc(C(=O)N2CCC(c3ccc(F)cc3)CC2)c(Nc2ccc(OC(F)F)cc2)c1Cl [Compound 312, 3-chloro-4-[4-(difluoromethoxy)phenylamino]-5-[4-(4-fluorophenyl)piperidine-1-carbonyl]pyridine-2-sulfonamide]
≥ 50 | Cc1ccc(Cl)cc1Nc1c(C(=O)N2CC(c3ccc(F)cc3)C2)cnc(S(N)(=O)=O)c1Cl [Compound 314, 3-chloro-4-(5-chloro-2-methylphenylamino)-5-[3-(4-fluorophenyl)azetidine-1-carbonyl]pyridine-2-sulfonamide]
≥ 50 | Cc1ccccc1Nc1c(C(=O)N2CCC(c3ccc(F)cc3)CC2)cnc(S(=O)(=O)Nc2ccn(C)n2)c1Cl [Compound 317, 3-chloro-5-[4-(4-fluorophenyl)piperidine-1-carbonyl]-N-(1-methyl-1H-pyrazol-3-yl)-4-(o-tolylamino)pyridine-2-sulfonamide]
≥ 50 | Cc1cc([N+](=O)[O-])ccc1Nc1c(C(=O)N2CCC(c3ccc(F)cc3)CC2)cnc(S(N)(=O)=O)c1Cl [Compound 318, 3-chloro-5-[4-(4-fluorophenyl)piperidine-1-carbonyl]-4-(2-methyl-4-nitrophenylamino)pyridine-2-sulfonamide]
